Consider 15 compounds from paper PMC5004205, “Spiro[pyrrolidine-3, 3´-oxindole] as potent anti-breast cancer compounds: Their design, synthesis, biological evaluation and cellular target identification” (Scientific Reports, 2016).

≈ marks a conversion by molar mass, not a printed value. Where “and” joins values, the source holds several entries; their conditions need not be identical. Identical values can stand only once. Entries after “also recorded” stand apart in the source; their conditions may differ.

Data set [1] relates to MCF-7 cells. Conditions: cited from earlier work.
The subject of data set [2] is MCF-7 breast cancer cells. Put plainly: MTT colorimetric cell viability assay, MCF-7. Type of data set: cell-based. To be noted: for inhibition at 50 µM / EC50: Homo sapiens; for inhibition at 50 µM: MCF7, 48 hours, MTT, triplicates, read-out: Percentage inhibition MCF-7; for CTRL-TST/CTRL*100 (inhibition) MCF-7: EC50 plate; for EC50: MCF7, MTT, mean of three experiments. Here is the method: MCF-7 cells were maintained as monolayer in 25 cm^2 culture flasks (T-25) at 37 °C in DMEM medium (GIBCO, St. Louis, USA) supplemented with high glucose, L-glutamine, pyridoxine hydrochloride, 110 mg/L sodium pyruvate, 3.7 g/L NaHCO3 and antibiotics (Penicillin-10,000 units/mL, Streptomycin −10,000 μg/mL, GIBCO, USA). Growth medium (pH 7.4) was prepared by adding 5% heat inactivated FBS (Fetal Bovine Serum, GIBCO, USA) and stored at 4 °C. The medium was changed 10–18 hrs prior to experiment, and cells were confluent at the time of experimentation. Cells were dislodged from flasks by gentle trypsinization containing 0.25% Trypsin. MCF-7 cells were regularly sub-cultured thrice a week in a seeding density of 40,000–50,000 cells/cm^2area. Cell confluency = 70%
The MTT colorimetric viability assay was performed to evaluate the anticancer effect of compounds. 30,000 cells/100 μl of media were seeded per well and allowed to stretch and adhere overnight at 37 °C. Following day media was removed and 100 μl fresh media was added to the grown cells. […] There was one positive and one negative control along with 13 compounds. The results were measured all in triplicate in 45 wells of 96 well plate at each time point. Cytotoxic effect was evaluated using ability of live cells to cleave MTT ((3-[4, 5- dimethylthiazol-2-yl]-2, 5-diphenyl tetrazolium bromide)) (Sigma-Aldrich, St Louis, MO, USA), into formazan crystals. Post 48 hours of treatment, 10 μl of MTT (5 mg/ml in PBS) was added to the cells and incubated for 4 hours in dark at 37 °C. The violet colored crystals formed were then dissolved in 100 μl DMSO solvent (Dimethyl Sulfoxide, Sigma-Aldrich, St. Louis, MO, USA). The colorimetric assay was read by a MultiMode Plate Reader (Bio-Rad) at 595 nm. Percentage of Inhibition of drug was calculated by following formula:
O.D1 O.D2 O.D3 AVG CTRL-TST CTRL-TST/CTRL*100 stdev

The next data set deals with COS-7 cells. Put plainly: MTT colorimetric cell viability assay, COS-7. Type of data set: cell-based. Conditions: for inhibition at 50 µM: Chlorocebus aethiops, COS-7, MTT, triplicates, read-out: Percentage inhibition COS-7. Here is the method: (§1) The MTT colorimetric viability assay was performed to evaluate the anticancer effect of compounds. 30,000 cells/100 μl of media were seeded per well and allowed to stretch and adhere overnight at 37 °C. Following day media was removed and 100 μl fresh media was added to the grown cells. Adhered cells were then treated with the compounds 5a-m dissolved in DMSO in triplicates at a standard concentration of 50 μM for 48 hours. There was one positive and one negative control along with 13 compounds. The results were measured all in triplicate in 45 wells of 96 well plate at each time point. Cytotoxic effect was evaluated using ability of live cells to cleave MTT ((3-[4, 5- dimethylthiazol-2-yl]-2, 5-diphenyl tetrazolium bromide)) (Sigma-Aldrich, St Louis, MO, USA), into formazan crystals. Post 48 hours of treatment, 10 μl of MTT (5 mg/ml in PBS) was added to the cells and incubated for 4 hours in dark at 37 °C. The violet colored crystals formed were then dissolved in 100 μl DMSO solvent (Dimethyl Sulfoxide, Sigma-Aldrich, St. Louis, MO, USA). The colorimetric assay was read by a MultiMode Plate Reader (Bio-Rad) at 595 nm. Percentage of Inhibition of drug was calculated by following formula: […]

The subject of the next data set is MCF10A cells. The data set is described as follows: MTT cytotoxicity assay, MCF10A. Format: cell-based. Conditions: for CTRL-TST/CTRL*100 MCF10A cytotoxicity / Percentage inhibition MCF10A: 48 hours; for CTRL-TST/CTRL*100 MCF10A cytotoxicity: 595 nm; for Percentage inhibition MCF10A: MTT. Here is the method:
MCF10A was obtained from American Tissue Type Culture Collection (ATCC, Bethesda, MD). All cells were grown in a humidified atmosphere at 37 °C, with 5% CO2 in air.
as §1
Cytotoxicity assay with MCF 10A
Experiment :MCF10A cytotoxicity assay 48 hours
Raw Data{Wavelength:595.0}
O.D1 O.D2 O.D3 AVG CTRL-TEST CTRL-TST/CTRL*100
(1 picture or pasted object on this page, not shown here)
For orientation: Formazan colour is commonly taken as a measure of viable cells.

Data set [3] has as its system MCF-7 cells. The data set is described as follows: Cell migration (scratch) assay. Conditions: 24 hours, compared to untreated cells. Format: cell-based. The protocol: MCF-7 cells were grown to confluence in six-well tissue culture plastic dishes to a density of ∼0.2 million cells/well. After 24 hrs of seeding, cells were treated with chemical compounds. The medium was removed and the cells were scratched by 200 μL pipette micro tip through the center of the plate. The cultures were washed to remove debris and re-cultured with DMEM containing 10% FBS for cell migration. The cells were imaged at 24 hrs and the migrated distance was measured. Migration rate was calculated by counting five to seven fields per image and the results presented as the average of three independent experiments performed over multiple days.

For data set [4], the system named is MCF-7 cells. Put plainly: Annexin V/propidium iodide FACS assay. Format: cell-based. Here is the method:
The assay is based on the ability of the protein annexin V to bind to phosphatidylserine (PS) exposed on the outer membrane leaflet in apoptotic cells (PS also appears on the necrotic cell surface). The annexin V assay was performed following the manufacturer’s instructions (Annexin V-FITC kit,Alexa Fluor). Briefly, the cells were washed with PBS and suspended in pre-diluted binding buffer. The cell density was adjusted to 2 million and 195 μl of cell suspension were mixed with 5 μl Annexin V-FITC and incubated for 10 min in the dark at room temperature. The cells were washed with binding buffer, re-suspended in 195 μl binding buffer, counterstained with 10 μl of the 20 μg/ml propidium iodide stock (final concentration 1 μg/ml) and the data were acquired by BD FACS diva 7.0 at 6 h, 12 h and 24 h.
In general terms: Flow cytometry measures light scatter and fluorescence of single cells or particles in a stream.

Data set [5] concerns MCF-7 cells. The data set is described as follows: DNA fragmentation (DNA-ladder) assay. Format: cell-based. To be noted: MCF-7, gel electrophoresis. The protocol:
The DMSO (dimethyl sulphoxide)–SDS (sodium dodecyl sulphate)–TE (Tris-EDTA) method: 2 million MCF-7cells were taken as starting material for DNA isolation. Cells were dislodged with Trypsin-EDTA and washed with 1 X PBS. DMSO was added directly to the cell pellet (100 μl) and mixed well by pipetting. TE buffer (pH 7.4) with 2% SDS was added into the mixture with same volume, followed by pipetting. The solution was centrifuged at 3000 rpm at 4 °C and 30 μL of the supernatant was loaded on agarose gel to check the effect of drugs on DNA molecule.

A further data set has as its system PKCα kinase. Set-up: method as in Shantani UPT Application Notes. Conditions: at 1μM; ref Shantani UPT Application Notes; cited from earlier work.

As for `CS[C@@]1(C)C(=O)N(C)[C@@](Cc2c[nH]c3ccccc23)(SC)C(=O)N1C` [Chaetocochins G], in the data set on MCF-7 cells [1], the “IC50 in MCF-7” value was 16.9 µg/mL (≈ 44.8 µM) and the “Mode of cell death” value was “Induces Apoptosis”.

As a reminder, the inhibition is the drop in the measured response relative to a control, in per cent. For `Cc1ccc(C2NCCC23C(=O)Nc2ccccc23)cc1` (centres unmarked) [Compound 5a], the figures for the inhibition at 50 µM (in data set [2]; with COS-7 cells) were 35.06 ± 0.09% and 11.73 ± 0.09%, respectively.

Consider `O=C1Nc2ccccc2C12CCNC2c1cccc(C(F)(F)F)c1` (centres unmarked) [Compound 5b], for which the figures for the inhibition at 50 µM (in data set [2]; in the data set on COS-7 cells) were 33.1 ± 0.12% and 20.73 ± 0.11%, respectively.

For the compound `Cc1cc(C)cc(C2NCCC23C(=O)Nc2ccccc23)c1` (centres unmarked) [Compound 5c], the inhibition at 50 µM in data set [2] is 34.46 ± 0.11%; with COS-7 cells, 28.8 ± 0.13%.

Consider `O=C1Nc2ccccc2C12CCNC2c1c(F)cccc1F` (centres unmarked) [Compound 5d], for which the inhibition at 50 µM in data set [2] was 44.25 ± 0.17%; in the data set on COS-7 cells it was 9.22 ± 0.12%.

In general, EC50 refers to the concentration giving half of the maximal effect. Take `O=C1Nc2ccccc2C12CCNC2c1cccc(F)c1` (centres unmarked) [Compound 5e]: the “CTRL-TST/CTRL*100 (inhibition) MCF-7” value is recorded as -4.013 in data set [2] (concentration row 10); 8.388 in data set [2] (concentration row 20); 23.78 in data set [2] (concentration row 30); 31.55 in data set [2] (concentration row 40); 52.5 in data set [2] (concentration row 50). For the same compound, the EC50 in data set [2] was found to be 6 µM. The inhibition at 50 µM in data set [2] is 54.67 ± 0.08%; in the data set with COS-7 cells, 3.56 ± 0.19%. Also, the “Effect on proliferation of healthy MCF10A cells” value in the data set with MCF10A cells is on record as “did not inhibit the proliferation; also recorded: little or no effect”. Also, in the data set on MCF10A cells, the “CTRL-TST/CTRL*100 MCF10A cytotoxicity” value was 4.48. The “Percentage inhibition MCF10A” value in the data set with MCF10A cells came to 4.48%. The “Inhibition of proliferation of healthy COS-7 cells” value with COS-7 cells is on record as “did not inhibit the proliferation”.

With `COc1cccc(C2NCCC23C(=O)Nc2ccccc23)c1` (centres unmarked) [Compound 5f], the inhibition at 50 µM in data set [2] is 38.48 ± 0.18%; with COS-7 cells, 34.87 ± 0.17%.

In the case of `COc1ccc(C2NCCC23C(=O)Nc2ccccc23)cc1OC` (centres unmarked) [Compound 5g], the inhibition at 50 µM in data set [2] turned out to be 25.29 ± 0.24%; with COS-7 cells, 2.39 ± 0.23%.

`COc1ccc(C2NCCC23C(=O)Nc2ccccc23)cc1` (centres unmarked) [Compound 5h]: the values for the inhibition at 50 µM (in data set [2]; in the data set on COS-7 cells) were 50.62 ± 0.24% and 25.2 ± 0.06%, respectively.

For the compound `COc1cc(OC)c(C2NCCC23C(=O)Nc2ccccc23)cc1OC` (centres unmarked) [Compound 5i], the “CTRL-TST/CTRL*100 (inhibition) MCF-7” value amounted to 7.139 in data set [2] (concentration row 10); 20.22 in data set [2] (concentration row 20); 43.4 in data set [2] (concentration row 30); 50.54 in data set [2] (concentration row 40); 66.16 in data set [2] (concentration row 50). This compound had a concentration for a half-maximal effect (EC50) in data set [2] of 4.01 µM. The inhibition at 50 µM is 53.66 ± 0.06% in data set [2] and 15.6 ± 0.09% in the data set with COS-7 cells. Moreover, the “Effect on proliferation of healthy MCF10A cells” value in the data set with MCF10A cells was “did not inhibit the proliferation; also recorded: little or no effect”. Moreover, in the data set with MCF10A cells, the “CTRL-TST/CTRL*100 MCF10A cytotoxicity” value is on record as 0.8. The “Percentage inhibition MCF10A” value in the data set on MCF10A cells stood at 0.8%. The “Inhibition of proliferation of healthy COS-7 cells” value with COS-7 cells was “did not inhibit the proliferation”. The “Inhibition of cell migration of MCF-7 cells” value with MCF-7 cells [3] was “inhibit cell migration”. In addition, the “Mode of cell death by Annexin-PI FACS” value in the data set on MCF-7 cells [4] is listed as “necrosis was also confirmed”. In addition, the “DNA fragmentation pattern / mode of cell death” value in the data set with MCF-7 cells [5] is given as “smearing of DNA fragments”.

Consider `COc1ccc(C2NCCC23C(=O)Nc2ccccc23)c(F)c1` (centres unmarked) [Compound 5j], for which the results for the inhibition at 50 µM (in data set [2]; in the data set with COS-7 cells) were 38.72 ± 0.15% and 7.52 ± 0.15%, respectively.

For the compound `COc1ccc(C2NCCC23C(=O)Nc2ccccc23)cc1C` (centres unmarked) [Compound 5k], the inhibition at 50 µM amounted to 44.4 ± 0.09% in data set [2] and 7.14 ± 0.19% with COS-7 cells.

On to `O=C1Nc2ccccc2C12CCNC2c1cc(C(F)(F)F)ccc1C(F)(F)F` (centres unmarked) [Compound 5m], for which the inhibition at 50 µM in data set [2] was 31.81 ± 0.11%; with COS-7 cells, -0.51 ± 0.29%.

As for `COc1cc([C@@H]2c3cc4c(cc3[C@@H](O[C@@H]3O[C@@H]5CO[C@@H](C)O[C@H]5[C@H](O)[C@H]3O)[C@H]3COC(=O)[C@H]23)OCO4)cc(OC)c1O` [Etoposide, reference compound], the results for the inhibition at 50 µM (in data set [2]; with COS-7 cells) were 71.95 ± 0.11% and 77.65 ± 0.1%, respectively. Moreover, the “CTRL-TST/CTRL*100 (inhibition) MCF-7, positive control” value in data set [2] (eto control row of the EC50 plates of 5l, 5e, 5i, concentration not given, listed as eto) is 70.96 and 73.49 and 73.1582.

Regarding Bisindolylmaleimide-III [Bis-III], the “Inhibition of PKCα kinase activity” value in the data set on PKCα kinase is recorded as 93%.
